How the values were obtained:
[1] = molecular target: T1, Alpha-glucosidase (Saccharomyces cerevisiae, UniProt P53341); test: biochemical; details: for inhibition at 500 µM: pH 6.8, read-out: Inhibition (%) at 0.5 mM; for IC50: pH 6.8, 30 min incubation
T1 construct: purchased 5003-1KU Type I
Description: The alpha-glucosidase inhibitory assay was performed by adopting the method of Pierre et al., with minor modifications. Alpha-glucosidase (Cat No. 5003-1KU Type I) belonging to Saccharomyces cerevisiae was selected for this protocol because its structure and function were similar to yeast and mammalian enzymes. In test tubes, 10 μL of test compound (0.5 mM), 70 μL of saline phosphate buffer (50 mM) to adjust pH at 6.8, and 10 μL of α-glucosidase enzyme (0.0234 units) were added to prepare […] assay mixture. A quantity of 10 μL p-nitrophenyl-α-D-glucopyranoside (0.5 mM, N1377 from Sigma, Burlington, MA, USA) was added to initiate the reaction and tubes were incubated for 30 min. […] Free substrate change in absorbance was monitored at 400 nm. The alpha-glucosidase inhibitory activity was calculated as percentage inhibition by using formula:% Inhibition = [(Abs. of control − Abs. of test)/Abs. of control] × 100
IC50 values were determined using EZ-Fit enzyme kinetics software version 5.03 (Perrella Scientific Inc. Amherst, Amherst, MA, USA).

T1 sequence (P53341 whole entry): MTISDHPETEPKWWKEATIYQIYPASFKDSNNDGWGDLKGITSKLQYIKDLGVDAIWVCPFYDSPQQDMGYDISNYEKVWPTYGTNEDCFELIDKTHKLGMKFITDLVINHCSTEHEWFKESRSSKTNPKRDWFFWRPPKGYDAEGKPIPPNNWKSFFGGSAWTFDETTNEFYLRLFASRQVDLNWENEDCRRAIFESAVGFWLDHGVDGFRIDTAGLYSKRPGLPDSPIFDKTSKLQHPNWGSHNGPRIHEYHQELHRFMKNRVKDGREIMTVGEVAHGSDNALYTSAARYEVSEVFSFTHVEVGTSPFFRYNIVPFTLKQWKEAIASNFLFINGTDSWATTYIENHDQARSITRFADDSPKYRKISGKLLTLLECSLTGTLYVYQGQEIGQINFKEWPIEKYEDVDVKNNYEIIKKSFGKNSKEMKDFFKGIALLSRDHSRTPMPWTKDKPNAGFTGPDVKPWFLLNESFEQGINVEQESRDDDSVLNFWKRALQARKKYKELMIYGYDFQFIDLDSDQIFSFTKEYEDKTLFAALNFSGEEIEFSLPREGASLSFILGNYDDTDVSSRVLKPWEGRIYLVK

## CCCNC(=O)CCCn1nnc2ccccc2c1=O [14a, N-propyl-4-(4-Oxobenzo[1,2,3]triazin-3(4H)-yl)butanamide]
[1]
  inhibition at 500 µM: 39.13 ± 0.19%
other
  melting point: 127 to 128 °C

## CCCCNC(=O)CCCn1nnc2ccccc2c1=O [14b, N-Butyl-4-(4-oxobenzo[1,2,3]triazin-3(4H)-yl)butanamide]
[1]
  IC50: 243.41 ± 0.18 µM
  inhibition at 500 µM: 67.53 ± 0.14%
other
  melting point: 123 to 124 °C

## CCCCCNC(=O)CCCn1nnc2ccccc2c1=O [14c, N-pentyl-4-(4-Oxobenzo[1,2,3]triazin-3(4H)-yl)butanamide]
[1]
  inhibition at 500 µM: 42.34 ± 0.25%
other
  melting point: 106 to 107 °C

## CCCCCCNC(=O)CCCn1nnc2ccccc2c1=O [14d, N-Hexyl-4-(4-oxobenzo[1,2,3]triazin-3(4H)-yl)butanamide]
[1]
  IC50: 335.04 ± 0.07 µM
  inhibition at 500 µM: 66.2 ± 0.11%
other
  melting point: 102 to 103 °C

## CCCCCCCNC(=O)CCCn1nnc2ccccc2c1=O [14e, N-Heptyl-4-(4-oxobenzo[1,2,3]triazin-3(4H)-yl)butanamide]
[1]
  inhibition at 500 µM: 40.23 ± 0.21%
other
  melting point: 100 to 101 °C

## CCCCCCCCNC(=O)CCCn1nnc2ccccc2c1=O [14f, N-Octyl-4-(4-oxobenzo[1,2,3]triazin-3(4H)-yl)butanamide]
[1]
  inhibition at 500 µM: 30.57 ± 0.16%
other
  melting point: 95 to 96 °C

## Cc1cc(C)cc(NC(=O)CCCn2nnc3ccccc3c2=O)c1 [14g, N-(3,5-Dimethylphenyl)-4-(4-oxobenzo[1,2,3]triazin-3(4H)-yl)butanamide]
[1]
  IC50: 196.52 ± 0.08 µM
  inhibition at 500 µM: 78.32 ± 0.18%
other
  melting point: 110 to 111 °C

## O=C(CCCn1nnc2ccccc2c1=O)Nc1ccc(Br)cc1 [14h, N-(4-Bromophenyl)-4-(4-oxobenzo[1,2,3]triazin-3(4H)-yl)butanamide]
[1]
  IC50: 238.15 ± 0.15 µM
  inhibition at 500 µM: 74.25 ± 0.27%
other
  melting point: 115 to 116 °C

## O=C(CCCn1nnc2ccccc2c1=O)Nc1ccc(Cl)cc1 [14i, N-(4-Chlorophenyl)-4-(4-oxobenzo[1,2,3]triazin-3(4H)-yl)butanamide]
[1]
  IC50: 163.29 ± 0.13 µM
  inhibition at 500 µM: 82.77 ± 0.2%
other
  melting point: 144 to 145 °C

## O=C(CCCn1nnc2ccccc2c1=O)Nc1cccc(Cl)c1 [14j, N-(3-Chlorophenyl)-4-(4-oxobenzo[1,2,3]triazin-3(4H)-yl)butanamide]
[1]
  IC50: 52.01 ± 0.07 µM
  inhibition at 500 µM: 89.35 ± 0.21%
other
  melting point: 209 to 210 °C

## Cc1ccc(NC(=O)CCCn2nnc3ccccc3c2=O)cc1 [14k, N-(4-methylphenyl)-4-(4-Oxobenzo[1,2,3]triazin-3(4H)-yl)butanamide]
[1]
  IC50: 27.13 ± 0.12 µM
  inhibition at 500 µM: 94.18 ± 0.23%
other
  melting point: 175 to 176 °C

## Cc1cccc(NC(=O)CCCn2nnc3ccccc3c2=O)c1 [14l, N-(3-methylphenyl)-4-(4-Oxobenzo[1,2,3]triazin-3(4H)-yl)butanamide]
[1]
  IC50: 32.14 ± 0.11 µM
  inhibition at 500 µM: 92.63 ± 0.12%
other
  melting point: 105 to 106 °C

## COc1ccccc1NC(=O)CCCn1nnc2ccccc2c1=O [14m, N-(2-Methoxyphenyl)-4-(4-oxobenzo[1,2,3]triazin-3(4H)-yl)butanamide]
[1]
  IC50: 121.3 ± 0.15 µM
  inhibition at 500 µM: 84.31 ± 0.18%
other
  melting point: 139 to 140 °C

## COc1ccc(NC(=O)CCCn2nnc3ccccc3c2=O)cc1 [14n, N-(4-Methoxyphenyl)-4-(4-oxobenzo[1,2,3]triazin-3(4H)-yl)butanamide]
[1]
  IC50: 75.37 ± 0.14 µM
  inhibition at 500 µM: 87.46 ± 0.15%
other
  melting point: 147 to 148 °C
